Experimental data reported in PubChem BioAssay AID588655 (The Scripps Research Institute Molecular Screening Center, 2011).

Experiments:
[1] = system: HT29 cells, phospho-ERK1/2 western blot, 24 h; assay: phospho-ERK1/2 level change, either direction, late-stage follow-up, counter-screen for KLF5 inhibitor project, HT29 cells, chemiluminescent western blot, powder samples (AID 588655); conditions: measured here: phospho-ERK fold change vs DMSO; at 10 µM
[2] = target: Mitogen-activated protein kinase 1 (Homo sapiens) (UniProt P28482); assay: as above; conditions: HT29 cells, phospho-ERK1/2 western blot, 24 h; at 10 µM; stronger effect = higher value
Chain of Mitogen-activated protein kinase 1 (Homo sapiens) (P28482 whole entry, looked up): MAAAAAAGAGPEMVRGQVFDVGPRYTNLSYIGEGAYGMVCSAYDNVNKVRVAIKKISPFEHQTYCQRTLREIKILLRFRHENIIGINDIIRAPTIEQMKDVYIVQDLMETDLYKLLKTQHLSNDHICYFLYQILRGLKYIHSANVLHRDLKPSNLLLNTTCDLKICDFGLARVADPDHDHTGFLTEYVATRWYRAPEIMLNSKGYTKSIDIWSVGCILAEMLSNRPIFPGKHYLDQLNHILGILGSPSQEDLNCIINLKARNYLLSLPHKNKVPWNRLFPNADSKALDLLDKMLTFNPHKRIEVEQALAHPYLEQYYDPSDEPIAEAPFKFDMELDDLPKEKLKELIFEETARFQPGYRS

| phospho-ERK1/2 band inhibition vs DMSO (stronger effect = higher value) [2] [%] | Structure (SMILES) | fold change [1] |
| --- | --- | --- |
| 38.6 | CN(C(=O)COC(=O)/C=C/c1cccc([N+](=O)[O-])c1)C1CCS(=O)(=O)C1 (stereo unspecified) | -1.63 |
| 34.3 | CN(C(=O)CNC(=O)/C=C/c1cccc(Cl)c1)C1CCS(=O)(=O)C1 (stereo unspecified) | -1.52 |
| 50.5 | CN(C(=O)CNC(=O)/C=C/c1cccc(Cl)c1)C1CCS(=O)(=O)CC1 | -2.02 |
